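These data come from cells grown in 96-well plates and exposed to compound for 48 hours at five concentrations. At the GI50, growth is halved. The concentration for full growth arrest is given as TGI.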
Tests used:
Test in all cases: DTP human tumour cell line panel, 48 h
SN12C renal = tested on: SN12C renal
SF-295 CNS = tested on: SF-295 CNS
HS 578T breast = tested on: HS 578T breast
OVCAR-5 ovarian = tested on: OVCAR-5 ovarian
U251 CNS = tested on: U251 CNS
EKVX NSCLC = tested on: EKVX NSCLC
NCI-H226 lung = tested on: NCI-H226 lung
SK-OV-3 ovarian = tested on: SK-OV-3 ovarian
SF-268 CNS = tested on: SF-268 CNS
DU-145 prostate = tested on: DU-145 prostate

Compound | TGI (SN12C renal) | TGI (SF-295 CNS) | TGI (HS 578T breast) | TGI (OVCAR-5 ovarian) | TGI (U251 CNS) | TGI (EKVX NSCLC) | TGI (NCI-H226 lung) | TGI (SK-OV-3 ovarian) | TGI (SF-268 CNS) | TGI (DU-145 prostate) | GI50 (SF-295 CNS) | GI50 (OVCAR-5 ovarian) | GI50 (EKVX NSCLC) | GI50 (SF-268 CNS) | GI50 (DU-145 prostate) | GI50 (SN12C renal) | GI50 (U251 CNS) | GI50 (NCI-H226 lung) | GI50 (SK-OV-3 ovarian)
COc1cccc(C(=O)C#Cc2cnc(OC)nc2OC)c1 | 2 µM | 31.7 µM | > 30.2 µM | 8.05 µM | 7.27 µM | 3.9 µM | 2.75 µM | 44.9 µM | 6.14 µM | 12.4 µM |  |  |  |  |  |  |  |  | 
COc1cc(O)c2c(=O)c(OC)c(-c3ccc(OC)c(OC)c3)oc2c1 |  | > 100 µM |  | > 100 µM | > 100 µM | > 100 µM |  | > 100 µM | > 100 µM | > 100 µM | > 100 µM | 23 µM | > 100 µM | > 100 µM | > 100 µM |  |  |  | 
Cc1cc(NS(=O)(=O)c2ccc(NC(=O)c3cccc4c(Nc5ccc(S(N)(=O)=O)cc5)c5ccccc5nc34)cc2)no1 | > 100 µM |  |  | > 100 µM | > 100 µM | > 100 µM |  | > 100 µM | > 100 µM |  |  |  |  |  |  |  |  |  | 
C=C(C)[C@@H]1CC[C@]2(C(=O)OC)CC[C@]3(C)[C@H](CC[C@@H]4[C@@]5(C)CC[C@H](O)C(C)(C)[C@@H]5CC[C@]43C)[C@@H]12 | 35.1 µM | 34.4 µM | 56.5 µM | 55.4 µM | 35.8 µM | 45.1 µM | 44.4 µM |  | 67.3 µM | > 100 µM |  |  |  |  |  |  |  |  | 
O=c1[nH]c(Nc2nc3ccccc3[nH]2)nc(O)c1Cc1ccccc1 | > 100 µM |  | > 100 µM |  | > 100 µM | > 100 µM | > 100 µM |  | > 100 µM | > 100 µM |  |  |  |  |  |  |  |  | 
CC(=O)OCC1OC(OCCCOP(=S)(OCCC#N)OCC2OC(n3ccc(N)nc3=O)C(OC(=O)c3ccccc3)C2OC(=O)c2ccccc2)C(OC(C)=O)C(OC(C)=O)C1OC(C)=O (stereo not drawn) | > 100 µM | > 100 µM | > 100 µM | > 100 µM | > 100 µM | > 100 µM | > 100 µM | > 100 µM | > 100 µM | > 100 µM |  |  |  |  |  |  |  |  | 
CN(CCCNC(=O)c1cc(-c2ccccc2)nc2ccccc12)CCCNC(=O)c1cc(-c2ccccc2)nc2ccccc12 | 17.4 µM | 3.31 µM | 16 µM | 4.81 µM | 4.05 µM | 17.2 µM | 10.7 µM | 26.2 µM | 14 µM | 9.49 µM |  |  |  |  |  |  |  |  | 
CCN(CCN(CC)C(=O)Nc1ccccc1)C(=O)Nc1ccccc1 | > 100 µM | > 100 µM | > 100 µM | > 100 µM | > 100 µM | > 100 µM | > 100 µM | > 100 µM | > 100 µM | > 100 µM |  |  |  |  |  |  |  |  | 
O=C1Cc2c([nH]c3ccc(C(=O)O)cc23)-c2ccccc2N1 | > 100 µM | > 100 µM | > 100 µM | > 100 µM | > 100 µM |  | > 100 µM | > 100 µM | > 100 µM | > 100 µM |  |  |  |  |  |  |  |  | 
CC[C@@]1(O)C(=O)OCc2c1cc1n(c2=O)Cc2c-1nc1ccccc1c2/C=N\NC(=O)C(N)CCSC (stereo partly drawn) | 0.925 µM | 0.315 µM | > 100 µM | > 23.7 µM | 1.17 µM | > 100 µM | 1.11 µM | 7.73 µM | 1.55 µM | > 100 µM |  |  |  |  |  |  |  |  | 
O=C(c1ccco1)N(C(=O)N1CCN(c2ccccc2)CC1)S(=O)(=O)c1ccccc1 | 61.9 µM | > 100 µM | > 100 µM | > 100 µM | 72.2 µM | 60.2 µM | > 100 µM | > 100 µM | > 100 µM | > 100 µM |  |  |  |  |  |  |  |  | 
O=NN(CCF)C(=O)NC1CCSCC1 | > 100 µM | > 100 µM |  | > 100 µM | > 100 µM |  |  | > 100 µM | > 100 µM |  |  |  |  |  |  |  |  |  | 
CCC1C(c2ccccc2O)c2cc3c(cc2OC1N1CCOCC1)OCO3 (stereo not drawn) | 29.4 µM | 28.6 µM | 39.6 µM | 28.7 µM | 26.4 µM | 25.4 µM | 36.3 µM | 39.6 µM | 31.8 µM | 28 µM |  |  |  |  |  |  |  |  | 
NC(Cc1ccc(S(=O)(=O)O)cc1)C(=O)NC(Cc1ccc(S(=O)(=O)O)cc1)C(=O)NC(Cc1ccc(S(=O)(=O)O)cc1)C(=O)NC(Cc1ccc(S(=O)(=O)O)cc1)C(=O)O (stereo not drawn) | > 100 µM | > 100 µM | > 100 µM | > 100 µM | > 100 µM | > 100 µM | > 100 µM | > 100 µM | > 100 µM | > 100 µM |  |  |  |  |  |  |  |  | 
CCN(CC)C1Oc2cc3c(cc2C(c2cccc(OC)c2OC)C1C)OCO3 (stereo not drawn) | > 100 µM | 16.3 µM | 28.8 µM | 48.6 µM | 32 µM | 52.3 µM | 9.24 µM | 58.5 µM | > 100 µM | 23.9 µM |  |  |  |  |  |  |  |  | 
C=C1CC[C@@H](C)[C@](C)(CCc2ccoc2)C/C=C\C=C/1C(=O)O | > 100 µM | > 100 µM | > 100 µM | > 100 µM | > 100 µM | > 100 µM | > 100 µM | > 100 µM |  |  |  |  |  |  |  |  |  |  | 
COc1ccc(C2=NOC(N)(c3ccc(OC)cc3)C2)cc1 (stereo not drawn) | > 100 µM | > 100 µM | > 100 µM | > 100 µM | > 100 µM | > 100 µM | > 100 µM | > 100 µM |  | > 100 µM |  |  |  |  |  |  |  |  | 

Compound | TGI (SN12C renal) | TGI (SF-295 CNS) | TGI (HS 578T breast) | TGI (OVCAR-5 ovarian) | TGI (U251 CNS) | TGI (EKVX NSCLC) | TGI (NCI-H226 lung) | TGI (SK-OV-3 ovarian) | TGI (SF-268 CNS) | TGI (DU-145 prostate) | GI50 (SF-295 CNS) | GI50 (OVCAR-5 ovarian) | GI50 (EKVX NSCLC) | GI50 (SF-268 CNS) | GI50 (DU-145 prostate) | GI50 (SN12C renal) | GI50 (U251 CNS) | GI50 (NCI-H226 lung) | GI50 (SK-OV-3 ovarian)
O=C(O)c1ccccc1N=Nc1c(O)c(S(=O)(=O)O)cc2cc(S(=O)(=O)O)ccc12 | > 100 µM | > 100 µM | > 100 µM | > 100 µM | > 100 µM | > 100 µM |  | > 100 µM | > 100 µM | > 100 µM |  |  |  |  |  |  |  |  | 
COc1ccc(CNc2cc(=O)n(C)c(=O)[nH]2)cc1 | > 100 µM | > 100 µM | > 100 µM | > 100 µM | > 100 µM | > 100 µM | > 100 µM | > 100 µM | > 100 µM |  |  |  |  |  |  |  |  |  | 
COc1ccc(Nc2ccc([N+](=O)[O-])cc2[N+](=O)[O-])cc1CN(CCCl)CCCl | > 100 µM | 19.7 µM |  | 8.94 µM | 30 µM |  | 21.4 µM | > 100 µM | 16.8 µM | 10.5 µM | 2.79 µM | 2.51 µM |  | 2.44 µM | 3.1 µM | 2.6 µM | 3.11 µM | 3.49 µM | 3.85 µM
CCCCCCCCCCCC[N+](CCCCCCCCCCCC)=C1SCCS1 | 14.6 µM | 11.6 µM |  | 25.1 µM | 13.7 µM | 26 µM | 28.2 µM | 30.1 µM | 21.5 µM |  |  |  |  |  |  |  |  |  | 
CCOC(=O)c1c[nH]c2ccc3c(c2c1=O)S(=O)(=O)CC3 (tested in a mixture with another compound) | > 100 µM | > 100 µM |  | > 100 µM | > 100 µM | > 100 µM | > 100 µM | > 100 µM | > 100 µM |  |  |  |  |  |  |  |  |  | 
OC(c1cccnc1Cl)c1nc2ccccc2c2ccnc(Cl)c12 (stereo not drawn) | 45.8 µM | 9.75 µM | 9.4 µM | > 100 µM | > 100 µM | > 100 µM |  | 63.4 µM | > 100 µM | > 100 µM |  |  |  |  |  |  |  |  | 
O=C1NC2CCCCCC2C12CCCCC2 (stereo not drawn) | > 100 µM | > 100 µM |  | > 100 µM | > 100 µM | > 100 µM | > 100 µM | > 100 µM | > 100 µM |  |  |  |  |  |  |  |  |  | 
CSc1c(C#N)c(N)n(-c2ccc(Cl)cc2)c(=O)c1C#N | > 100 µM |  | > 100 µM | > 100 µM | > 100 µM | > 100 µM | > 100 µM | > 100 µM | > 100 µM | > 100 µM |  |  |  |  |  |  |  |  | 
CCN(CC)c1nnc(CCCCCCCCc2nnc(N(CC)CC)o2)o1 | > 100 µM | > 100 µM |  | > 100 µM | > 100 µM | > 100 µM | > 100 µM | > 100 µM | > 100 µM | > 100 µM |  |  |  |  |  |  |  |  | 
Cc1cc2c(cc1C)[n+](=O)c(C(=O)c1ccccc1)c(C(F)(F)F)n2[O-] | 10.2 µM | 10.6 µM | 15.1 µM | 10.2 µM | 16.4 µM | 2.97 µM |  | > 28.8 µM | 7.71 µM | 3.15 µM |  |  |  |  |  |  |  |  | 
C=CCOc1ccc(C2C(C(=O)OC)C(=O)CC(O)(c3ccccc3)C2C(=O)OC)cc1OC (stereo not drawn) | > 100 µM | > 100 µM |  | > 100 µM | > 100 µM | > 100 µM | 60.3 µM |  | 52.7 µM | > 100 µM |  |  |  |  |  |  |  |  | 
CC1CC(C#N)=C2NCCN2C1=O (stereo not drawn) | > 100 µM | > 100 µM | > 100 µM |  | > 100 µM | > 100 µM | > 100 µM | > 100 µM | > 100 µM | > 100 µM |  |  |  |  |  |  |  |  | 
CC(C)(CCC(C)(C)N1OC1c1ccccc1)N1OC1c1ccccc1 (stereo not drawn) | > 100 µM | > 100 µM | > 100 µM |  | > 100 µM |  | > 100 µM | > 100 µM | > 100 µM | > 100 µM |  |  |  |  |  |  |  |  | 
COc1cc(Nc2nc3cc(C(F)(F)F)ccc3n3cccc23)cc(OC)c1OC | > 100 µM | > 100 µM | > 100 µM | > 100 µM | > 100 µM | > 100 µM |  | > 100 µM | > 100 µM | > 100 µM |  |  |  |  |  |  |  |  | 
CN1CCN(P2(=S)Oc3ccc4ccccc4c3-c3c(ccc4ccccc34)O2)CC1 | > 100 µM | > 100 µM |  | > 100 µM | > 100 µM | > 77.8 µM | > 92.3 µM | > 100 µM | > 100 µM |  |  |  |  |  |  |  |  |  | 
COC(=O)C(=O)Cc1nc2ccccc2o1 | > 100 µM |  |  | > 100 µM | > 100 µM | > 100 µM |  | > 100 µM | > 100 µM |  |  |  |  |  |  |  |  |  | 

Source: PubChem BioAssay (NCI)
